Assay results as given in patent US6710048B2, “Pyrazine derivatives as modulators of tyrosine kinases” (Ortho-McNeil Pharmaceutical, Inc., priority 2000, dated 2004).

Tests used:
Protein Kinase A = target: T1, Protein Kinase A (Bos taurus, UniProt P00517); assay: Protein Kinase A selectivity assay; type: biochemical, bovine; settings: Table 4 kinase selectivity; read-out: IC50, Assay 5 Protein Kinase A
T1 construct: purified from bovine heart; purchased Upstate Biotech 14-114; host or cells: bovine heart
Experimental: (§1) Assays to test compound inhibition of other kinases were preformed using methods that measure the amount of phosphorylation of a biotinylated peptide substrate. Biotinylated peptide substrates were selected from the literature as appropriate for the enzyme being evaluated. […] Assay conditions vary slightly for each protein kinase, for example, insulin receptor kinase requires 10 mM MnCl2 for activity and Calmodulin-dependent protein kinase requires calmodulin and 2 mM CaCl2. The reaction mixture was dispensed into the wells of a streptavidin coated Flashplate and 1 μl drug stock in 100% DMSO was added to a 100 μl reaction volume resulting in a final concentration of 1% DMSO in the reaction. Enzyme was diluted in 50 mM Tris-HCl pH=8.0, 0.1% BSA and added to each well. The reaction was incubated for one hour at 30° C. in the presence of compound. After one hour the reaction mix was aspirated from the plate and the plate was washed with PBS containing 100 mM EDTA. The plate was read on a scintillation counter to determine ^33P-γ-ATP incorporated into the immobilized peptide. Test compounds were assayed in duplicate at 8 concentrations [100 tM, 10 μM, 1 μM, 100 nM, 10 nM, 1 nM, 100 μM, 10 μM]. A maximum and minimum signal for the assay was determined on each plate. The IC50 was calculated from the dose response curve of the percent inhibition of the maximum signal in the assay according to the formula [max signal−background/test compound signal−background (100)=% inhibition] by graphing the percent inhibition against the log concentration of test compound. Known inhibitor compounds appropriate for the kinase being assayed were also included on each plate.
(§2) VEGF-R (vascular endothelial growth factor receptor-2) is a fusion protein containing a polyhistidine tag at the N-terminus followed by amino acids 786-1343 of the rat VEGF-R2 kinase domain (GenBank Accession #U93306). CDK1 (cyclin dependent kinase 1) is isolated from insect cells expressing both the human CDK1 catalytic subunit and its positive regulatory subunit cyclin B (New England Biolabs, Beverly, Mass., Cat. #6020). CDK4 (cyclin dependent kinase 4) contains amino acids 769 to 921 of the mouse […] protein found in the GST-retinoblastoma protein construct (Santa Cruz Biotechnology, Santa Cruz, Calif.; Cat. #SC-4112). Insulin Receptor Kinase consists of residues 941-1313 of the cytoplasmic domain of the beta-subunit of the human insulin receptor (BIOMOL, Plymouth Meeting, Pa., Cat. #SE-195). Protein Kinase A is the catalytic subunit of cAMP dependent protein kinase-A purified from bovine heart (Upstate Biotech, Lake Placid, N.Y., Cat#14-114). PKC (protein kinase-C) is the gamma or beta isoform of the human protein produced in insect cells (BIOMOL, Plymouth Meeting, Pa., Cat. #SE-143). Casein Kinase 1 is a truncation at amino acid 318 of the C-terminal portion of the rat CK1 delta isoform produced in E.coli (New England Biolabs, Beverly, Mass., Cat. #6030). Casein Kinase 2 includes the alpha and beta subunits of the human CK2 protein produced in E.coli (New England Biolabs, Beverly, Mass., Cat. #6010). Calmodulin Kinase (calmodulin-dependent protein kinase 2) is a truncated version of the alpha subunit of the rat protein produced in insect cells (New England Biolabs, Beverly, Mass., Cat. #6060). Glycogen Synthase Kinase-3 is the beta isoform of the rabbit enzyme produced in E. coli (New England Biolabs, Beverly, Mass., Cat. #6040). MAP Kinase is the rat ERK-2 isoform containing a polyhistidine tag at the N-terminus produced in E. coli. and activated by phosphorylation with MEK1 prior to purification (BIOMOL, Plymouth Meeting, Pa., Cat. #SE-137). EGFR (epidermal growth factor receptor) is purified from human A431 cell membranes (Sigma, St. Louis, Mo., Cat.# E3641). PDGF-R (platelet derived growth factor receptor) is a fusion protein containing a polyhistidine tag at the N-terminus followed by nucleotides 1874-3507 of the human PDGF-R beta subunit kinase domain (Accession #M21616). […]

PKC-γ = target: T2, PKC-γ (Homo sapiens, UniProt P05129); assay: PKC-γ kinase selectivity assay; type: biochemical; settings: Table 4 kinase selectivity; read-out: IC50, Assay 6 PKC-γ
T2 construct: purchased BIOMOL SE-143; host or cells: insect cells
Experimental: as §1, §2

Casein Kinase 2 = target: T3, Casein Kinase 2 (Homo sapiens, UniProt P68400); assay: Casein Kinase 2 selectivity assay; type: biochemical; settings: Table 4 kinase selectivity; 10 = approximate value; read-out: IC50, Assay 9 Casein Kinase 2
T3 construct: purchased New England Biolabs 6010; host or cells: E. coli
T3 sequence (P68400 whole entry): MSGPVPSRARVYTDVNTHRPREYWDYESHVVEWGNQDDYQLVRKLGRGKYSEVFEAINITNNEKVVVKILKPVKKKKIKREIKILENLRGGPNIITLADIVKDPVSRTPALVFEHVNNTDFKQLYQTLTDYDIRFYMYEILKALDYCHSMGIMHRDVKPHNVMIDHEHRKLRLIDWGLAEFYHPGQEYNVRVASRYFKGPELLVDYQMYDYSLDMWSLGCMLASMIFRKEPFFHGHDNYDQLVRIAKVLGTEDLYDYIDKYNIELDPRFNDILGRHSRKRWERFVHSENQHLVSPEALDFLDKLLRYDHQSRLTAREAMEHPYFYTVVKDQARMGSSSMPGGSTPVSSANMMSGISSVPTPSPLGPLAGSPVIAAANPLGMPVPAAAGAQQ
T3 sequence (P67870 whole entry partner): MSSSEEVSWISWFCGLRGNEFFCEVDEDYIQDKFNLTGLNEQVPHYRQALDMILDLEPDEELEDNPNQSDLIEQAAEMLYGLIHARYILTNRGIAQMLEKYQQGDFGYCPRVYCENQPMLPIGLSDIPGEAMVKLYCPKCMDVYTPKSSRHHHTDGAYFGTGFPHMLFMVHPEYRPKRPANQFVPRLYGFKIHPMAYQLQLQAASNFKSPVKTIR
Experimental: as §1, §2

[1] = target: T4, Glycogen Synthase Kinase-3 (beta isoform) (Oryctolagus cuniculus, UniProt G1T8E2); assay: GSK-3 kinase selectivity assay; type: biochemical, rabbit; settings: Table 4 kinase selectivity; read-out: IC50, Assay 11 GSK-3
T4 construct: purchased New England Biolabs 6040; host or cells: E. coli
T4 sequence (G1T8E2 1-432): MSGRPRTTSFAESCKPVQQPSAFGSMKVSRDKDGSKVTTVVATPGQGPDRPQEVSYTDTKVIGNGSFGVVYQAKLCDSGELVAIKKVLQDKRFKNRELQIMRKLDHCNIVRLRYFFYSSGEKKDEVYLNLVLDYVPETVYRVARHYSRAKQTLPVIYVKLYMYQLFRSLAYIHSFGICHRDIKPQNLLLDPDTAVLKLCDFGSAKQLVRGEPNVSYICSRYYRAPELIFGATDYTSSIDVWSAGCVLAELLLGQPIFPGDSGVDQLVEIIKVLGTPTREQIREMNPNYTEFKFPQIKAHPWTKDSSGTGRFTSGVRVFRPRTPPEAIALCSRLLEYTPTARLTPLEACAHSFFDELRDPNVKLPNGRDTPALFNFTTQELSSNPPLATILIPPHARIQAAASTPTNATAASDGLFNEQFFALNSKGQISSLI
Experimental: as §1, §2

MAP Kinase ERK-2 = target: T5, MAP Kinase ERK-2 (Rattus norvegicus, UniProt P63086); assay: MAP Kinase ERK-2 selectivity assay; type: biochemical; settings: Table 4 kinase selectivity; read-out: IC50, Assay 12 MAP Kinase ERK-2
T5 construct: polyhistidine (N); purchased BIOMOL SE-137; host or cells: E. coli
T5 sequence (P63086 whole entry): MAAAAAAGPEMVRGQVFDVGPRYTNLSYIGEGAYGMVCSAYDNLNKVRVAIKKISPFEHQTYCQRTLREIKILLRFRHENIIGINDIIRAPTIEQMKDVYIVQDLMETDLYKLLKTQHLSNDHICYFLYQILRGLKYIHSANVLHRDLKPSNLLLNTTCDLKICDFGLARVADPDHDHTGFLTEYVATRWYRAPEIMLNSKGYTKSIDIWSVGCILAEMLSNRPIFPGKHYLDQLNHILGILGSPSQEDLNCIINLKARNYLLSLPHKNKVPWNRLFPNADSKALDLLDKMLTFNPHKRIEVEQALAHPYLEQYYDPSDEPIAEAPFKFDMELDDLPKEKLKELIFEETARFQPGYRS
Experimental: as §1, §2

Insulin Receptor Kinase = target: T6, Insulin Receptor Kinase (Homo sapiens, UniProt P06213); assay: Insulin Kinase selectivity assay; type: biochemical; settings: Table 4 kinase selectivity; read-out: IC50, Assay 13 Insulin Kinase
T6 construct: consists of residues 941-1313 of the cytoplasmic domain of the beta-subunit of the human insulin receptor; purchased BIOMOL SE-195
T6 sequence (P06213 980-1352): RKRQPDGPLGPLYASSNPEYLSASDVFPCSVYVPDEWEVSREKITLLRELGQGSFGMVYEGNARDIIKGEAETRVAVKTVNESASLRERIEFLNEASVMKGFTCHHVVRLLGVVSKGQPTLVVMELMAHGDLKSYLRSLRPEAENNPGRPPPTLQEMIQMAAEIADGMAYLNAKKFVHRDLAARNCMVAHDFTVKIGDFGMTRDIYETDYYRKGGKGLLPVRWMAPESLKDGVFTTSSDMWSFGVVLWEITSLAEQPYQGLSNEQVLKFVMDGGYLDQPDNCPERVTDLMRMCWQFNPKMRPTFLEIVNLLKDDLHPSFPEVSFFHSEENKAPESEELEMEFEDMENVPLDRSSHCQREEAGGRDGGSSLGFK
Experimental: as §1, §2

| Compound | IC50 (Protein Kinase A) | IC50 (PKC-γ) | IC50 (Casein Kinase 2) | IC50 [1] | IC50 (MAP Kinase ERK-2) | IC50 (Insulin Receptor Kinase) |
| --- | --- | --- | --- | --- | --- | --- |
| O=C(NCCCO)c1cncc(-c2cncc(Nc3cccc(Cl)c3)n2)c1 [Cmd 39] | > 100 µM | > 100 µM | ~10 µM | 866 nM | > 100 µM | 1.8 µM |
| Clc1cccc(Nc2cncc(-c3cncc(NCCCn4cncn4)c3)n2)c1 [Cmd 76] | > 100 µM | – | 7.2 µM | 196 nM | > 100 µM | > 100 µM |
| Clc1cccc(Nc2cncc(-c3cncc(NCCCc4ccncc4)c3)n2)c1 [Cmd 71] | > 100 µM | – | > 100 µM | 159 nM | > 100 µM | > 100 µM |
| Clc1cccc(Nc2cncc(-c3cncc(NCCCc4cccnc4)c3)n2)c1 [Cmd 72] | > 100 µM | – | > 100 µM | 318 nM | > 100 µM | > 100 µM |
| Clc1cccc(Nc2cncc(-c3cncc(NCCCN4CCCCC4)c3)n2)c1 [Cmd 73] | > 100 µM | 1.36 µM | 6.35 µM | 491 nM | > 100 µM | > 100 µM |
| Clc1cccc(Nc2cncc(-c3cncc(NCCCn4cccn4)c3)n2)c1 [Cmd 75] | > 100 µM | – | 8.1 µM | 606 nM | > 100 µM | > 100 µM |
| CN(C)CCCNc1cncc(-c2cncc(Nc3cccc(Cl)c3)n2)c1 [Cmd 35] | > 100 µM | 14.5 µM | > 100 µM | 8150 nM | > 100 µM | > 100 µM |

Results, then the compound that gave them:

| IC50 (Protein Kinase A) | IC50 (PKC-γ) | IC50 (Casein Kinase 2) | IC50 [1] | IC50 (MAP Kinase ERK-2) | IC50 (Insulin Receptor Kinase) | Compound |
| --- | --- | --- | --- | --- | --- | --- |
| > 100 µM | 3.96 µM | > 100 µM | 11400 nM | > 100 µM | > 100 µM | CN(C)CCNc1cncc(-c2cncc(Nc3cccc(Cl)c3)n2)c1 [Cmd 33, N′-[5-[6-[(3-chlorophenyl)amino]pyrazinyl]-3-pyridinyl]-N^2,N^2-dimethyl-1,2-ethanediamine] |
| > 100 µM | > 100 µM | > 100 µM | 4020 nM | > 100 µM | > 100 µM | OCCCCNc1cncc(-c2cncc(Nc3cccc(Cl)c3)n2)c1 [Cmd 32] |
| > 100 µM | > 100 µM | > 100 µM | 478 nM | > 100 µM | 1.69 µM | OCCCNc1cncc(-c2cncc(Nc3cccc(Cl)c3)n2)c1 [Cmd 4] |
